According to US9695164B2, “Crystalline forms of pyrroloquinoline quinone disodium salt” (Zhucheng Haotian Pharm Co., Ltd., priority 2012, dated 2017):
“Also recorded” adds a separate entry of the source. Counter-ions that a name gives are not always drawn. Each block holds one compound with its values, some of them ahead of it.

How the values were obtained:
Type in all cases: physicochemical
[1] = Approximate solubility of PQQ disodium salt in various solvents by gravimetric analysis; details: for Solubility @ 25: 25° C.; for Solubility @ 50: 50° C.
Procedure: Before preparation of the crystals, conventional methods may be employed to measure the solubility of the PQQ disodium salt in different solvents, and subsequently appropriate solvent(s) may be selected to prepare the crystals of the invention. For example, the following method may be used to measure the solubility of the PQQ disodium salt in various solvents:
(1) At 25° C. and 50° C. respectively, about 25 mg PQQ disodium salt is stirred in 1 ml solvent to equilibrium for at least 24 h, and subsequently the solution is filtered, wherein the solvent in the liquid part is volatized under vacuum completely. The approximate solubility of the raw material in the solvent is determined by gravimetric analysis.
Gravimetric analysis: a volume (generally 0.5 mL) of the filtrate is weighed accurately and placed in a vessel which has already been dried and weighed, wherein the weight of the vessel is indicated as Mhollow. Subsequently, the total weight of the vessel and the filtrate is measured and indicated as M0. Then, the weight of the filtrate is M0−Mhollow. After the solvent is volatized completely under vacuum, the total weight is measured accurately again (indicated as M1). Then, the mass of the precipitated solid is M1−Mhollow, and the mass of the solvent is M0−M1. As such, the approximate solubility of the raw material in this solvent is: X(g)=[(M1−Mhollow)/(M0−M1)]×100(g)

[2] = Hygroscopic analysis (DVS); details: 25° C.; for moisture absorption / hygroscopicity compared among crystal forms (overlay of DVS graphs) / hygroscopicity (in words): disodium salt; for hygroscopicity compared among crystal forms (overlay of DVS graphs): at 80% RH; for variation of hygroscopicity: conventional storage environment of 40-80 RH
Procedure: 4. Hygroscopic Analysis As indicated by DVS (FIG. 4), crystalline Form A absorbs 1.6% of moisture at 40% RH, 2.3% at 65% RH, and 2.8% at 80% RH. […] Instrument model: SMS DVS Intrinsic, 0-95% RH, Temperature: 25° C. As described above, crystal E was prepared according to Example 1 in patent literature 1. The hygroscopic analysis graph of crystal E (shown in FIG. 21) was obtained using the DVS test method and conditions used in the foregoing examples, and its hygroscopic property was compared with those of crystals A and B according to the invention (the results are shown in FIG. 22).

[3] = Crystal form stability (Table 3); details: disodium salt
[4] = Solvent content (thermogravimetric analysis, Table 3); details: disodium salt
Procedure: 2. Thermogravimetric Analysis
(the theoretical weight loss of a water molecule is 4.6%). It is possibly a hydrate. The peak temperature of decomposition is 312.5° C.
Instrument model: Netzsch TG 209F3
Temperature range: 30-400° C.
Protection gas: 15 mL/min

[5] = solvent acetonitrile:methyl isobutyl ketone (1.1)
[6] = solvent acetonitrile:methyl tert-butyl ether (1:1), first line (r31)
[7] = solvent acetonitrile:methyl tert-butyl ether (1:1), second line (r33)
[8] = solvent acetonitrile:toluene (1:1)
[9] = solvent acetonitrile:water (1:1)
[10] = solvent methyl tert-butyl ether
[11] = solvent tetrahydrofuran:water (1:1)

Solubility @ 25 ([1]; solvent acetone:water (1:1)): 0.53 g/100 g
Solubility @ 50 ([1]; solvent acetone:water (1:1)): 1.36 g/100 g
Solubility @ 25 ([1]; solvent acetone): 0.13 g/100 g
Solubility @ 50 ([1]; solvent acetone): 0.05 g/100 g
Solubility @ 25 [1, 5]: 0.09 g/100 g
Solubility @ 50 [1, 5]: 0.04 g/100 g
Solubility @ 25 [1, 6]: 0.10 g/100 g
Solubility @ 50 [1, 6]: 0.04 g/100 g
Solubility @ 25 [1, 7]: 0.03 g/100 g
Solubility @ 50 [1, 7]: 0.02 g/100 g
Solubility @ 25 [1, 8]: 0.04 g/100 g
Solubility @ 50 [1, 8]: 0.00 g/100 g
Solubility @ 25 [1, 9]: 0.22 g/100 g
Solubility @ 50 [1, 9]: 0.14 g/100 g
Solubility @ 25 ([1]; solvent acetonitrile): 0.01 g/100 g
Solubility @ 50 ([1]; solvent acetonitrile): 0.05 g/100 g
Solubility @ 25 ([1]; solvent chloroform): 0.02 g/100 g
Solubility @ 50 ([1]; solvent chloroform): 0.03 g/100 g
Solubility @ 25 ([1]; solvent dichloromethane): 0.02 g/100 g
Solubility @ 50 ([1]; solvent dichloromethane): 0.04 g/100 g
Solubility @ 25 ([1]; solvent ethanol:water (1:1)): 0.10 g/100 g
Solubility @ 50 ([1]; solvent ethanol:water (1:1)): 0.10 g/100 g
Solubility @ 25 ([1]; solvent ethanol): 0.08 g/100 g
Solubility @ 50 ([1]; solvent ethanol): 0.11 g/100 g
Solubility @ 25 ([1]; solvent ethyl acetate): 0.11 g/100 g
Solubility @ 50 ([1]; solvent ethyl acetate): 0.09 g/100 g
Solubility @ 25 ([1]; solvent ethyl ether): 0.06 g/100 g
Solubility @ 50 ([1]; solvent ethyl ether): 0.01 g/100 g
Solubility @ 25 ([1]; solvent heptane): 0.02 g/100 g
Solubility @ 50 ([1]; solvent heptane): 0.11 g/100 g
Solubility @ 25 ([1]; solvent hexane): 0.06 g/100 g
Solubility @ 50 ([1]; solvent hexane): 0.02 g/100 g
Solubility @ 25 ([1]; solvent isopentanol): 0.02 g/100 g
Solubility @ 50 ([1]; solvent isopentanol): 0.00 g/100 g
Solubility @ 25 ([1]; solvent isopropanol): 0.09 g/100 g
Solubility @ 50 ([1]; solvent isopropanol): 0.08 g/100 g
Solubility @ 25 ([1]; solvent isopropyl acetate): 0.36 g/100 g
Solubility @ 50 ([1]; solvent isopropyl acetate): 0.03 g/100 g
Solubility @ 25 ([1]; solvent methanol:water (1:1)): 0.15 g/100 g
Solubility @ 50 ([1]; solvent methanol:water (1:1)): 0.13 g/100 g
Solubility @ 25 ([1]; solvent methanol): 0.09 g/100 g
Solubility @ 50 ([1]; solvent methanol): 0.11 g/100 g
Solubility @ 25 ([1]; solvent methyl ethyl ketone): 0.16 g/100 g
Solubility @ 50 ([1]; solvent methyl ethyl ketone): 0.06 g/100 g
Solubility @ 25 ([1]; solvent methyl isobutyl ketone): 0.05 g/100 g
Solubility @ 50 ([1]; solvent methyl isobutyl ketone): 0.07 g/100 g
Solubility @ 25 [1, 10]: 0.05 g/100 g
Solubility @ 50 [1, 10]: 0.03 g/100 g
Solubility @ 25 ([1]; solvent nitromethane): 0.01 g/100 g
Solubility @ 50 ([1]; solvent nitromethane): 0.02 g/100 g
Solubility @ 25 [1, 11]: 0.24 g/100 g
Solubility @ 50 [1, 11]: 0.29 g/100 g
Solubility @ 25 ([1]; solvent tetrahydrofuran): 0.15 g/100 g
Solubility @ 50 ([1]; solvent tetrahydrofuran): 0.24 g/100 g
Solubility @ 25 ([1]; solvent toluene): 0.02 g/100 g
Solubility @ 50 ([1]; solvent toluene): 0.05 g/100 g
Solubility @ 25 ([1]; solvent water): 0.37 g/100 g
Solubility @ 50 ([1]; solvent water): 0.89 g/100 g
SMILES: O=C(O)c1cc(C(=O)O)c2c(n1)C(=O)C(=O)c1cc(C(=O)O)[nH]c1-2 [PQQ disodium salt, pyrroloquinoline quinone disodium salt]

moisture absorption ([2]; 40% RH): 11.8%
moisture absorption ([2]; 65% RH): 13.0%
moisture absorption ([2]; 80% RH): 13.6%
hygroscopicity compared among crystal forms (overlay of DVS graphs) [2]: largest hygroscopicity
variation of hygroscopicity [2]: less than 2%
SMILES: O=C(O)c1cc(C(=O)O)c2c(n1)C(=O)C(=O)c1cc(C(=O)O)[nH]c1-2 [crystal E, pyrroloquinoline quinone disodium salt]
hygroscopicity (in words) [2]: rather hygroscopic; also recorded: slightly hygroscopic

Crystal form stability [3]: Stable
moisture absorption ([2]; 40% RH): 1.6%
hygroscopicity compared among crystal forms (overlay of DVS graphs) [2]: smallest hygroscopicity
variation of hygroscopicity [2]: less than 2%
hygroscopicity (in words) [2]: only slightly hygroscopic
Solvent content (%) [4]: 7.4%
SMILES: O=C(O)c1cc(C(=O)O)c2c(n1)C(=O)C(=O)c1cc(C(=O)O)[nH]c1-2 [crystalline Form A, pyrroloquinoline quinone disodium salt]

Crystal form stability [3]: Stable
moisture absorption ([2]; 40% RH): 7.3%
Solvent content (%) [4]: 12.2%
SMILES: O=C(O)c1cc(C(=O)O)c2c(n1)C(=O)C(=O)c1cc(C(=O)O)[nH]c1-2 [crystalline Form B, pyrroloquinoline quinone disodium salt]
hygroscopicity compared among crystal forms (overlay of DVS graphs) [2]: medium hygroscopicity; also recorded: relatively large hygroscopicity

moisture absorption ([2]; 40% RH): 7.8%
hygroscopicity compared among crystal forms (overlay of DVS graphs) [2]: largest hygroscopicity
hygroscopicity (in words) [2]: highly hygroscopic
Solvent content (%) [4]: 11.4%
SMILES: O=C(O)c1cc(C(=O)O)c2c(n1)C(=O)C(=O)c1cc(C(=O)O)[nH]c1-2 [crystalline Form C, pyrroloquinoline quinone disodium salt]
